Results taken from PubChem BioAssay AID1421 (Emory University Molecular Libraries Screening Center, 2008).
Activity calls are given as the source filed them. How the calls were made is not given here.

What follows are molecules tested against Prostaglandin E2 receptor EP2 subtype (Homo sapiens) (UniProt P43116) (assay: EP2 receptor modulators, dose response, cell-based, human EP2, PGE2 EC50 shift (AID 1421)). Conditions: EP2-expressing cells, PGE2 EC50 shift by compound.
Chain of Prostaglandin E2 receptor EP2 subtype (Homo sapiens) (P43116 whole entry, looked up): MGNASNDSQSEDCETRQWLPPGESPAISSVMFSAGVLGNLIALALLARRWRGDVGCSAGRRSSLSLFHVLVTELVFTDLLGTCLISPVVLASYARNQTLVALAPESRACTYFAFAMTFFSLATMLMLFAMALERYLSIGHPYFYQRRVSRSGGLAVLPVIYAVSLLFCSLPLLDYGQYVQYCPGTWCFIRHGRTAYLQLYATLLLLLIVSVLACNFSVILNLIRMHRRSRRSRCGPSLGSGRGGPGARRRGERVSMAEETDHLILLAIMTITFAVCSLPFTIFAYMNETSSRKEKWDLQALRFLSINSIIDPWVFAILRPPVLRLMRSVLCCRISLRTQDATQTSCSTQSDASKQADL

Row | SMILES | outcome
1 | O=C(Nc1cc(C(F)(F)F)ccc1-n1cncn1)c1ccc(-c2ccccc2)cc1 | active
2 | Cc1ccc(C)c(NC(=S)N(Cc2ccco2)C(C)c2cccs2)c1 (stereo unspecified) | active
3 | Cc1ccccc1C(=N)c1ccccc1Cc1cccc2ccccc12 | active
4 | COCCn1c(SC(C(=O)Nc2cc(C)ccc2OC)c2ccccc2)nnc1-c1ccc(Cl)cc1 (stereo unspecified) | active
5 | O=C1C2C3c4ccccc4C(c4ccccc43)[C@@H]2c2nc3ccccc3n21 (stereo partly specified) | active

Same assay, conditions: EP2-expressing cells, PGE2 EC50 shift by compound; measured here: PGE2 EC50 at 6.7 uM compound

Row | SMILES | PGE2 EC50 with compound
6 | O=C(Nc1cc(C(F)(F)F)ccc1-n1cncn1)c1ccc(-c2ccccc2)cc1 | 1.15 nM
7 | Nc1[nH]n2c(=O)c3c(nc2c1N=Nc1ccccc1)CCCC3 | 2.09 nM
8 | O=C(CC(Sc1ccccc1)c1cccs1)c1ccco1 (stereo unspecified) | 0.88 nM
9 | COc1ccc(-c2cc(C(F)(F)F)n3nc(C(=O)N(C)Cc4ccccc4)cc3n2)cc1OC | 1.03 nM
10 | O=C(Nc1cc(S(=O)(=O)Nc2ccc(Cl)cc2)ccc1N1CCCCC1)c1ccc(F)cc1Cl | 0.87 nM
11 | CCOC(=O)CCCCCCCCCCCCC1C=CCC1 (stereo unspecified) | 0.96 nM
12 | Cc1ccc(C)c(NC(=S)N(Cc2ccco2)C(C)c2cccs2)c1 (stereo unspecified) | 0.7 nM
13 | Cc1ccccc1C(=N)c1ccccc1Cc1cccc2ccccc12 | 0.33 nM
14 | CC(C)CCn1c(Oc2ccc(Cl)cc2)nc2c1c(=O)n(C)c(=O)n2C | 0.72 nM
15 | N#Cc1sc2nc(C3CC3)cc(-c3ccccc3)c2c1N | 0.78 nM
16 | O=c1c2ccccc2c(-c2ccccc2)nn1Cc1ccccc1 | 2.8 nM
17 | CCOc1ccccc1NC(=O)c1c(Br)cnn1C | 1.08 nM
18 | COc1cc(/C=C2\SC(=S)N(Nc3ncc(C(F)(F)F)cc3Cl)C2=O)ccc1O | 1.36 nM
19 | COc1ccc(-n2c(-c3cccc(OC)c3)nc(=S)c3c2CCCC3)cc1 | 2.89 nM
20 | Cc1ccc(OCc2n[nH]c(=S)n2Cc2ccccc2)cc1 | 1.17 nM
21 | Nc1c(C(=O)Nc2ccccc2F)sc2nc(Cc3ccccc3)cc(C(F)(F)F)c12 | 0.62 nM
22 | Cc1ccc(-c2cc3ccccc3nc2N2CCOCC2)cc1 | 1.45 nM
23 | C#CCn1c(S(=O)(=O)Cc2ccc(F)cc2)nc(-c2ccccc2)c1-c1ccccc1 | 0.95 nM
24 | N#Cc1c(-c2ccco2)nc(SCc2ccc(F)cc2)[nH]c1=O | 2.86 nM
25 | Cc1ccc(-n2cc(-c3ccccc3)c3c(N4CCOCC4)ncnc32)cc1 | 1.99 nM
26 | O=C(O)COc1cccc(NC(=O)c2ccccc2)c1 | 2.83 nM
27 | COc1ccccc1NC(=O)CSc1nnc(Cn2nnc(-c3ccccc3)n2)n1-c1ccccc1 | 0.55 nM
28 | Cc1ccc2c(c1)N(Cc1cccc(Cl)c1)C(=O)c1cccnc1O2 | 0.95 nM
29 | O=C(c1ccco1)N(Cc1cccc([N+](=O)[O-])c1)c1ccc(Br)cc1 | 1.01 nM
30 | COCCn1c(SC(C(=O)Nc2cc(C)ccc2OC)c2ccccc2)nnc1-c1ccc(Cl)cc1 (stereo unspecified) | 1.44 nM
31 | CCOC(=O)C1CCCN(C(=O)c2ccc(C)cc2O)C1 (stereo unspecified) | 1.44 nM

Row | SMILES | PGE2 EC50 with compound
32 | Cc1cc2cc(CN(Cc3nnnn3C3CCCCC3)CC3CCCO3)c(=O)[nH]c2cc1C (stereo unspecified) | 0.97 nM
33 | COc1ccc(C2CC(C(F)(F)F)n3nc(C(N)=O)c(Cl)c3N2)cc1OC (stereo unspecified) | 0.71 nM
34 | Cc1cccc(/N=C/c2c(O)ccc3oc4c(c23)CCCC4)n1 | 1.04 nM
35 | S=c1[nH]nc(-c2ccc(Br)o2)n1Cc1ccccc1 | 1.34 nM
36 | FC(F)(F)c1cc(CO[C@H]2CCCN[C@H]2c2ccccc2)cc(C(F)(F)F)c1 | 1.59 nM
37 | CSc1ccccc1NC(=O)COc1ccc(Cl)cc1C | 1.06 nM
38 | CCc1c(-c2n[nH]c(=S)n2Cc2ccccc2)csc1C | 1.22 nM
39 | COc1ccc(C2=NN(C(=O)c3cccs3)C(O)(C(F)(F)F)C2)cc1 (stereo unspecified) | 3 nM
40 | Clc1ccc(Cl)c(Nc2ccnc(SCc3ccccc3)n2)c1 | 0.64 nM
41 | Cc1cc(C)c(S(=O)(=O)c2ccccc2)c(OC(=O)c2c(Cl)cc(Cl)cc2Cl)n1 | 1.27 nM
42 | Nc1ccc(Br)cc1C(=O)c1ccccc1 | 0.43 nM
43 | CC1(C)CC2CC(C)(CN2c2ncnc3ccc(Br)cc23)C1 (stereo unspecified) | 1.52 nM
44 | Cc1cc(C)c(C)c(Cn2c(CO)nc3ccccc32)c1C | 0.6 nM
45 | C=CCn1c(SCc2c(C)noc2C)nc2ccccc2c1=O | 1.49 nM
46 | Cc1noc2ncnc(Sc3c(Cl)cccc3Cl)c12 | 0.75 nM
47 | CC1(C)Oc2ccc(C(=O)N3CCOCC3)cc2N(CC(=O)N2CCOCC2)C1=O | 1.69 nM
48 | CCOC(=O)c1ccc2nc(C(F)(F)F)[nH]c(=O)c2c1 | 1.19 nM
49 | O=C1C2C3c4ccccc4C(c4ccccc43)[C@@H]2c2nc3ccccc3n21 (stereo partly specified) | 0.7 nM
50 | Cc1oc(-c2ccccc2)cc1C(=O)Nc1cccc(/C=C/C(=O)O)c1 | 2.37 nM
51 | O=c1cc(N2CCCCC2)c(-c2ccccc2)nn1Cc1ccccc1Cl | 0.65 nM
52 | O=c1oc2c3c4c(cc2c(C(F)(F)F)c1CCN1CCOCC1)CCCN4CCC3 | 0.83 nM
53 | CCOc1ccc(Cl)cc1S(=O)(=O)n1cnc2cc(C)c(C)cc21 | 1.16 nM
54 | O=C(Nc1ccccc1Oc1ccccc1)c1ccc(Br)o1 | 1.05 nM
55 | CCCn1c(=O)[nH]c(=O)c2c1nc(-c1ccccc1OC(F)F)n2CCOC | 1.08 nM
56 | Cc1cc2c3c(c1)C1(SCC(=O)N1c1ccc(F)cc1)C(=O)N3C(C)(C)CC2C (stereo unspecified) | 2.59 nM
57 | CN(C)c1oc(-c2ccccc2Cl)nc1P(=O)(c1ccccc1)c1ccccc1 | 1.17 nM

Row | SMILES | PGE2 EC50 with compound
58 | COc1ccc2c(c1)C(C)=CC(C)(C)N2S(=O)(=O)c1ccc(Br)cc1 | 0.98 nM
59 | Cc1ccc2c3c(cccc13)-c1ccccc1C2=O | 0.86 nM
60 | CCOC(=O)c1c(-c2ccc(-c3ccccc3)cc2)csc1NC(=O)CCN1CCOCC1 | 1.34 nM
61 | CCCCOc1c(Br)cc(/C=N/O)cc1OCC | 0.93 nM
62 | C=CCN1C(=O)/C(=C/c2ccc(O)c(OC)c2)S/C1=N/c1nccs1 | 1.27 nM
63 | FC(F)(F)c1nnc(-c2ccccc2)nc1Sc1ccccc1 | 0.91 nM
64 | Cc1ccc(-n2c(=S)[nH]c3c(oc4ccccc43)c2=O)cc1 | 2.77 nM
65 | CCSc1nc2ccccc2n1Cc1ccccc1F | 0.94 nM
66 | O=C(OCc1ccc(Cl)cc1)c1ccccc1C(=O)c1ccccc1 | 1.02 nM
67 | Cc1cccc(-c2csc(N)c2C(=O)OC(C)C)c1 | 0.97 nM
68 | O=S(=O)(c1ccc(F)cc1)c1snnc1-c1ccccc1 | 0.89 nM
69 | CCN=C1S/C(=C\c2ccc(O)c(OCC)c2)C(=O)N1CC | 0.81 nM
70 | COc1ccc(OCC(=O)NC(=S)Nc2ccc3c4c(cccc24)CC3)cc1 | 2.85 nM
71 | Cc1cccc(Cn2c(=O)n(Cc3ccco3)c(=O)c3ccccc32)c1 | 1.13 nM
72 | Cc1ccccc1-n1c(SCC(=O)N2CCCC2)nnc1-c1ccccn1 | 1.28 nM
73 | Cc1cc(Oc2ccccc2F)nc(NCc2ccccc2)n1 | 1.34 nM
74 | COc1ccc(-c2nnc(N3CCC(C)CC3)c3ccccc23)cc1 | 1.15 nM
75 | O=C(O)COc1ccc2occ(C(=O)c3ccccc3)c2c1 | 0.86 nM
76 | CC(=O)NC(c1ccccc1)c1cccnc1 (stereo unspecified) | 1.03 nM
77 | CCOC(=O)c1c(NC(=O)c2cccs2)sc2c1CCCC2 | 0.81 nM
78 | O=C(c1cc(-c2ccccn2)nc2ccc(Br)cc12)N1CCc2ccccc2C1 | 1.06 nM
79 | CCOc1ccc(-c2nnc3n2N=C(c2ccc(OC)cc2)CS3)cc1 | 0.5 nM
80 | COC(=O)c1ccc(Oc2cc(C)nc(NCc3ccccc3)n2)cc1 | 0.34 nM
81 | CCOC(=O)c1sc2nccc(N(C)C)c2c1N=CNOCc1ccccc1 | 1.25 nM
